This note sets out measurements from ChEMBL document CHEMBL4808204, “Discovery of non-proteinogenic amino acids inhibiting biofilm formation by S. aureus and methicillin-resistant S. aureus” (Bioorg Med Chem Lett, 2021).

The structures appear in SMILES notation. Calls of active or inactive are those of the source. The calls are words filed in the database; no cut-off is given here.

Data set [1] relates to Staphylococcus aureus. Put plainly: Antibacterial activity in Staphylococcus aureus assessed as bacterial growth rate at 100 uM measured by UV absorbance based analysis. Format: functional.
Data set [2] deals with Staphylococcus aureus. Put plainly: Antibiofilm activity against Staphylococcus aureus assessed as biofilm formation at 100 uM measured by crystal violet staining based microplate reader assay. Format: functional.
Data set [3] deals with Staphylococcus epidermidis. Put plainly: Antibiofilm activity against Staphylococcus epidermidis assessed as inhibition of biofilm formation at 1 to 100 uM by UV absorbance based analysis. The data set is classed as functional, organism-based. To be noted: dose 1-100 µM.
Another data set has as its system Escherichia coli. The data set can be described thus: Antibiofilm activity against Escherichia coli assessed as inhibition of biofilm formation at 1 to 100 uM by UV absorbance based analysis. The data set is classed as functional, organism-based. The conditions noted are these: dose 1-100 µM.
For data set [4], the system named is Staphylococcus aureus. The data set can be described thus: Antibiofilm activity against methicillin-resistant Staphylococcus aureus assessed as inhibition of biofilm formation by UV absorbance based analysis. Format: functional, organism-based. The conditions noted are these: dose 1-100 µM.
The next data set relates to Streptococcus mutans. The data set can be described thus: Antibiofilm activity against Streptococcus mutans assessed as inhibition of biofilm formation at 1 to 100 uM by UV absorbance based analysis. The data set is classed as functional, organism-based. To be noted: dose 1-100 µM.
The subject of data set [5] is Staphylococcus aureus. Put plainly: Antibiofilm activity against Staphylococcus aureus assessed as inhibition of attachment of biofilm on the bacterial surface at 1 to 100 uM. Format: functional, organism-based. The conditions noted are these: dose 1-100 µM.
The next data set has as its system Listeria monocytogenes. The data set can be described thus: Antibiofilm activity against Listeria monocytogenes assessed as inhibition of biofilm formation by UV absorbance based analysis. The data set is classed as functional, organism-based. To be noted: dose 1-100 µM.
The next data set concerns HeLa. The data set can be described thus: Cytotoxicity against human HeLa cells at 1 to 100 uM by WST8 assay. The conditions noted are these: dose 1-100 µM. Format: cell-based. For orientation: Tetrazolium dyes change colour on reduction, which living cells bring about.
Data set [6] relates to Pseudomonas aeruginosa. Put plainly: Antibiofilm activity against Pseudomonas aeruginosa assessed as inhibition of biofilm formation at 1 to 100 uM by UV absorbance based analysis. To be noted: dose 1-100 µM. The data set is classed as functional, organism-based.
In data set [7] the test system is Staphylococcus aureus. The data set can be described thus: Antibiofilm activity against Staphylococcus aureus assessed as inhibition of biofilm formation at 10 uM measured by crystal violet staining based microplate reader assay. The data set is classed as functional.
In a further data set the test system is Acinetobacter baumannii. Put plainly: Antibiofilm activity against Acinetobacter baumannii assessed as inhibition of biofilm formation at 1 to 100 uM by UV absorbance based analysis. The conditions noted are these: dose 1-100 µM. The data set is classed as functional, organism-based.
In data set [8] the test system is Staphylococcus aureus. The data set can be described thus: Antibiofilm activity against Staphylococcus aureus assessed as inhibition of biofilm formation by UV absorbance based analysis. The data set is classed as functional, organism-based. To be noted: dose 1-100 µM.
The subject of data set [9] is Pseudomonas aeruginosa. The data set can be described thus: Antibiofilm activity against Pseudomonas aeruginosa assessed as inhibition of biofilm formation at 100 uM measured by crystal violet staining based microplate reader assay. The data set is classed as functional, organism-based.
In data set [10] the test system is Staphylococcus aureus. Put plainly: Antibiofilm activity against Staphylococcus aureus assessed as inhibition of biofilm formation at 500 uM. The data set is classed as functional.
Data set [11] relates to Staphylococcus aureus. The data set can be described thus: Antibiofilm activity against Staphylococcus aureus assessed as inhibition of biofilm formation at 60 uM. Format: functional.
Data set [12] concerns Staphylococcus aureus. Put plainly: Antibiofilm activity against Staphylococcus aureus assessed as inhibition of biofilm formation at 66 uM. Format: functional.
Data set [13] deals with Pseudomonas aeruginosa. Put plainly: Antibiofilm activity against Pseudomonas aeruginosa assessed as inhibition of biofilm formation at 100 uM. The data set is classed as functional.
Data set [14] deals with Staphylococcus aureus. The data set can be described thus: Antibiofilm activity against Staphylococcus aureus assessed as inhibition of biofilm formation at 100 uM. Format: functional.

Regarding `N[C@@H](Cc1ccc(Cl)c(Cl)c1)C(=O)O`, the Activity with Staphylococcus aureus [1] is on record as 117%. Also, the Biofilm formation in the data set with Staphylococcus aureus [2] is given as 46%.
As for `NC(C(=O)O)C(O)c1ccccc1` (configuration not stated), the Activity with Staphylococcus aureus [1] is on record as 97%. Moreover, the Biofilm formation in the data set on Staphylococcus aureus [2] was found to be 101%.
With `NC(C(=O)O)C(O)c1ccc(O)c(O)c1` (configuration not stated), the outcome (in [3]; in the data set on Escherichia coli; with Streptococcus mutans; in the data set with Staphylococcus aureus [5]; in the data set with Pseudomonas aeruginosa [6]; in the data set on Acinetobacter baumannii) was inactive. The result in the data set with Pseudomonas aeruginosa [9] was inactive. Further, the Activity result in the data set on Staphylococcus aureus [4] is “Dose-Dependent Effect”; in the data set on Listeria monocytogenes it was “Dose-Dependent Effect”; in the data set with Staphylococcus aureus [1], 104%; with HeLa it was “Non-Toxic”; in the data set on Staphylococcus aureus [8], “Dose-Dependent Effect”. Also, the inhibition (as a rule, the change of the read-out against control, counted positive when it falls) at 10 µM in the data set with Staphylococcus aureus [7] is 53%. Besides, the Biofilm formation with Staphylococcus aureus [2] was 12%.
Consider `N[C@@H](Cc1ccc(F)c(F)c1)C(=O)O`, for which the Activity in the data set on Staphylococcus aureus [1] is given as 145%. The Biofilm formation in the data set on Staphylococcus aureus [2] was 31%.
For `O=C(O)[C@H]1CCCN1` [D-PROLINE], the inhibition at 500 µM in the data set with Staphylococcus aureus [10] was more than 70%.
As for `N[C@@H](Cc1ccc(O)c(O)c1)C(=O)O` [LEVODOPA], in the data set on Staphylococcus aureus [1], the Activity turned out to be 84%. Besides, the Biofilm formation in the data set with Staphylococcus aureus [2] was 32%.
For `NC(Cc1cc(I)c(O)c(I)c1)C(=O)O` (configuration not stated) the same measures were 26% and 5%.
In the case of `CC(C)c1ccc2c(c1)CC[C@H]1[C@](C)(C(=O)O)CCC[C@]21C` [DEHYDROABIETIC ACID], the inhibition at 60 µM in the data set on Staphylococcus aureus [11] worked out at 90%.
`OCc1ccc(O)c(O)c1`: the Activity in the data set on Staphylococcus aureus [1] stood at 104%. For the same compound, in the data set with Staphylococcus aureus [2], the Biofilm formation worked out at 107%.
Consider `N[C@H](Cc1ccccc1)C(=O)O` [D-PHENYLALANINE], for which the inhibition at 500 µM in the data set on Staphylococcus aureus [10] is more than 70%.
Regarding `N[C@@H](Cc1ccc(O)c([N+](=O)[O-])c1)C(=O)O`, the Activity in the data set with Staphylococcus aureus [1] was found to be 80%. Besides, the Biofilm formation in the data set with Staphylococcus aureus [2] is recorded as 16%.
The corresponding values for `Oc1ccccc1O` [CATECHOL] are 106% and 84%.
Consider `NC(Cc1cc(Br)c(O)c(Br)c1)C(=O)O` (configuration not stated), for which the Activity with Staphylococcus aureus [1] is listed as 72%. For the same compound, the Biofilm formation with Staphylococcus aureus [2] is recorded as 6%.
For `CNC[C@H](O)c1ccc(O)c(O)c1` [EPINEPHRINE], the Activity in the data set on Staphylococcus aureus [1] came to 79%; with Staphylococcus aureus [2] it was 77%.
As for `N[C@H](CO)C(=O)O` [(D)-SERINE], the Activity in the data set with Staphylococcus aureus [1] was 85%. The Biofilm formation in the data set with Staphylococcus aureus [2] is recorded as 83%.
`NCCc1ccc(O)c(O)c1` [DOPAMINE]: the Activity in the data set with Staphylococcus aureus [1] came to 98%; with Staphylococcus aureus [2], 79%.
For `CCCCCCCCCCCCCC(=O)NCC(=O)O`, the Activity in the data set with Staphylococcus aureus [1] is reported as 38%. Besides, the Biofilm formation in the data set with Staphylococcus aureus [2] was determined as 4%.
For `NC(Cc1ccc(Oc2ccc(O)cc2)cc1)C(=O)O` (configuration not stated) the same measures were 106% and 15%.
`O=c1c(O)c(-c2ccc(O)c(O)c2)oc2cc(O)cc(O)c12` [QUERCETIN]: the inhibition at 66 µM in the data set on Staphylococcus aureus [12] is more than 70%. The inhibition at 100 µM with Pseudomonas aeruginosa [13] is more than 70%.
As to `NC(Cc1cc(I)c(Oc2ccc(O)c(I)c2)c(I)c1)C(=O)[O-].[Na+]` (configuration not stated), the Activity in the data set on Staphylococcus aureus [1] is recorded as 18%. In addition, the Biofilm formation with Staphylococcus aureus [2] is 2%.
Consider `N[C@H](Cc1ccc(O)cc1)C(=O)O`, for which, in the data set on Staphylococcus aureus [1], the Activity stood at 119%. Also, the inhibition at 100 µM with Staphylococcus aureus [14] was more than 70%. In the data set with Staphylococcus aureus [2], the Biofilm formation is 85%.
